Test results as given in patent publication US20190307818A1, “NOVEL ANTIMICROBIAL COMPOSITIONS AND METHODS OF USE” (priority 2016, published 2019).

Molecular target: T1, RhlR (Pseudomonas aeruginosa, UniProt P54292)
T1 construct: expressed in transfected cells; host or cells: E. coli TOP10 carrying pBAD-A 6xHIS-rhlR and pCS26 prhlA-luxCDABE
Assay: Two plasmid E. coli RhlR reporter (luciferase)
Type: cell-based, P. aeruginosa
Conditions: read-out: Percent Activity (RhlR reporter)
Excerpt: A two plasmid E. coli reporter system was constructed, in which LasR or RhlR was expressed under an arabinose inducible promoter (e.g., LasR or RhlR was cloned into a pBAD-A vector and expressed upon addition of arabinose) in the presence of a LasR-dependent or RhlR-dependent promoter fused to luciferase (e.g., cloned into a pCS26 vector). Upon the addition of arabinose and in the presence of AI, LasR or RhlR were expressed, formed a complex with the cognate AI, underwent dimerization, and activated transcription of the reporter construct. All potential inhibitors were tested at 100 μM. The percent activity was reported relative to wild-type (100%).
A sample experimental protocol for the RhlR reporter (see, e.g., Table 5A2) or for the LasR reporter (see, e.g., Table 5A1).
For the RhlR reporter, strains were re-streaked on LB+appropriate antibiotic before each experiment and grown overnight at 37° C. Three colonies were picked and a 3 mL overnight culture in LB+appropriate antibiotic was started. The culture was grown overnight at 37° C. The overnight culture was back-diluted 1:1000 into fresh LB+appropriate antibiotic in an appropriate volume, depending on the number of plates being screened. Each well in a 384 well plate received about 20 μL of culture. An additional 25 mL of culture was reserved for priming the plate filler. The culture was grown at 37° C. until OD600˜0.5, which took about 4 hrs. A 384-well plate was prepared. Stock concentrations of molecules (e.g., small molecule inhibitors) were 10 mM.
For a 10-point dose response for the RhlR reporter, a 1:3 dilution of molecule:DMSO (333 μL of stock molecule, 667 μL of DMSO using a 1 mL pipetteman) was used for accurate dispensing by the robot dispenser. Upon a prompt by the software, the appropriate concentration of each molecule was added. Each well was normalized with a DMSO standard to bring the total % volume of DMSO up to 1% using the robot. Plates were set aside with dispensed drugs until the cells were ready. Once the cells reached an OD600 of 0.5, an appropriate amount of cell culture was dispensed for screening into an Erlenmeyer flask. (Extra culture was saved for a negative control.) Arabinose was added to 0.1% final concentration (1:1000 dilution from stock solution), and AI was added to 10 μM (ED75) from a 10 mM stock. The components of the flask were mixed together by swirling. As mentioned previously, other concentrations of AIs may be suitable, e.g., the concentrations may be in the range of 2 uM to 100 uM, from 10 uM to 100 uM or from 2 uM to 10 uM. In some embodiments, 2 nM of 3-O—C12-HSL (for LasR) and 10 uM of C4-HSL (for RhlR) were used.
A clean plate was filled with water, 70% ethanol, LB, and primed with cultured cells to ensure that initial dispensing led to the appropriate volume of cells being added to the wells. 20 μL of this solution was dispensed into appropriate wells in a 384-well plate that contained small molecule antagonists. 20 μL of this solution was dispensed into wells intended for a positive control that contain only DMSO. To the culture that was saved for negative control, arabinose was added to 0.1%. An equal volume of DMSO was added to the culture, relative to the amount of AI added to the other culture. 20 μL of culture was dispensed into wells intended for a negative control that contained only DMSO and no small molecule QS inhibitors. Plates were incubated at 30° C. in the plate shaker. Plates were read using a 384 LUM/OD 600 setting on the plate reader after 4 hours of induction.
For data analysis, the average and standard deviation for each of the control groups were determined. In a screen, for each data point, the number of standard deviations from the mean was determined to determine if the inhibitor was a “hit”. In a dose response curve, for each data point, the percent inhibition was determined: 1−(X/M), where X=single data point and M=is the mean of the AI only control group. […]

T1 sequence (P54292 whole entry): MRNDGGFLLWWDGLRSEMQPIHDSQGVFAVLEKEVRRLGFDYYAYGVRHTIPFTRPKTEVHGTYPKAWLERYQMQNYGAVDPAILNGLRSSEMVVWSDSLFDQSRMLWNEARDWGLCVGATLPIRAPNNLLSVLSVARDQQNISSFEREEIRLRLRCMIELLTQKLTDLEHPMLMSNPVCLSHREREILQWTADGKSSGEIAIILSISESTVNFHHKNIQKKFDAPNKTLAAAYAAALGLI

**Q.** For `O=c1cc(-c2ccccc2)oc2cc(O)c(O)c(O)c12` [Molecule 46, Baicalein], which remaining activity at 100 µM is on record?
**A.** 57.4%
